Measured values published in patent publication US20260167620A1, “MULTIFUNCTIONAL COMPOUND CAPABLE OF DEGRADING BTK KINASE, AND COMPOSITION AND USE” (HANGZHOU HEALZEN THERAPEUTICS CO., LTD., priority 2021, published 2026).
pIC50: −log10 of the molar value.

Columns and labels:
OCI-LY10 cells = assay: Inhibitory activity on OCI-LY10 cell proliferation (MTS); type: cell-based; conditions: Homo sapiens, 72 h or 168 h
Description: (§1) The anti-tumor efficacy of the compounds was tested by measuring their inhibitory effects on OCI-LY10 and Mino cell proliferation. OCI-LY10 and Mino cells were cultured in RPM-1640 medium containing […] fetal calf serum. OCI-LY10 and Mino cells were digested, inoculated in a 96-well plate at a cell concentration of 10000 cells/well, and incubated overnight at 37° C., 5% CO2. Compounds of different concentrations (1000 nM, 4-fold dilution, 8 points) were added to the 96-well plate and incubated for 72 h or 168 h at 37° C. and […], and then 20 μL of MTS was added to each well. After incubation for 2 h, 25 μl of 10% SDS was added to each well to terminate the reaction. The absorbance at 490 nm and 650 nm were measured with a microplate reader. IC50 was calculated using GraphPad Prism 5.0.

BTK = biological target: T1, BTK (Homo sapiens, UniProt Q06187); assay: BTK degradation activity test in Mino cells (Westernblot or Elisa); type: cell-based; conditions: 24-72 h incubation
T1 construct: endogenous in cells; host or cells: Mino cells
Description: The Mino cell line cells are 0.5˜1 million/well in 6-well plates. The compounds are diluted to different concentrations, added to the plate, and after 24-72 h of incubation, the cells are collected. After the cells were lysed, the total protein concentration in each well was determined with a BCA kit. The amount of BTK is determined using the Westernblot or Elisa method.

Mino cells = assay: Inhibitory activity on Mino cell proliferation (MTS); type: cell-based; conditions: Homo sapiens, 72 h or 168 h
Description: as §1

[1] = Liver microsomal metabolic stability, human; type: in vitro ADME; conditions: human liver microsomes, NADPH, 37° C.
Description: (§2) Under the condition of ice bath, 1 mg of human or Mouse liver microparticles was add to PBS (1 mL) buffer, then NADPH (20 μL) was added, and incubated at 37° C. for 5 min. 10 μL of the compound to be tested was added, then suck several times with a pipette and divide into 3 aliquots of 330 μL; each and then samples were taken at 0, 15, 30, 60 and 120 min respectively. 10 μL of the solution was taken with a pipette each time and added to 490 μL of the solution containing the internal standard compound. The resulting solution was vortexed and then placed on ice, and then sampling at another time point continues. All samples were centrifuged at 10,000 rpm for 10 min, and the supernatant was taken for LC/MS testing. The metabolism of the compound in liver microsomes was calculated based on the peak area.

[2] = Liver microsomal metabolic stability, mouse; type: in vitro ADME; conditions: mouse liver microsomes, NADPH, 37° C.
Description: as §2

Rat absorption test = type: in vivo; conditions: SD rats, intragastric 10 mg/kg, plasma
Description: SD Rats were used as experimental animals, and drugs were administered intragastrically at 10 mg/kg (5% DMSO+5% Solutol+90% normal saline). The blood collection time points for intragastric administration were 0.25, 0.5, 1, 2, 4, 6, 8, and 24 h. 0.3 ml of whole blood was taken, and 0.1 ml of plasma was taken after centrifugation and analyzed by LC-MS.

T1 sequence (Q06187 whole entry): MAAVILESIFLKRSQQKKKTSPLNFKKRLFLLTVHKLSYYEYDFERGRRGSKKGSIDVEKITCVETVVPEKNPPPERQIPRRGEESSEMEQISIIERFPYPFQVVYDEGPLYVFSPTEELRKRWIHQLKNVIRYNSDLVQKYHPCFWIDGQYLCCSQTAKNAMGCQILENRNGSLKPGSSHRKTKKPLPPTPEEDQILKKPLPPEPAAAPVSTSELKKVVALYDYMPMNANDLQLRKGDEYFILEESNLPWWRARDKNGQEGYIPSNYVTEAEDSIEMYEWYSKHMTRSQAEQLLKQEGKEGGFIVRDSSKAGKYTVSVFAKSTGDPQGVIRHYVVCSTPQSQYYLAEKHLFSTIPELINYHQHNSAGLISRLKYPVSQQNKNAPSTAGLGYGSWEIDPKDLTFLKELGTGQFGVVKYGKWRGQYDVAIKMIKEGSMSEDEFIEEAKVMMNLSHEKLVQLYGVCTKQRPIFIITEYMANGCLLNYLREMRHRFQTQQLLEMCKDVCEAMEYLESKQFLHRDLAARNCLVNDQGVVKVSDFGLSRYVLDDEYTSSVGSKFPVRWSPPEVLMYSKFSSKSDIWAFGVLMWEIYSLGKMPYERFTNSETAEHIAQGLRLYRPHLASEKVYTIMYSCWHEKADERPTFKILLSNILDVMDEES

pIC50 (OCI-LY10 cells)	DC50 (BTK) [nM]	Thalf (min) Human [1] [min]	Thalf (min) Mouse [2] [min]	DNAUC (Rat absorption test)	SMILES	pIC50 (Mino cells)
9.74	< 10				NC(=O)c1nnc(N2CCCCC2)nc1Nc1ccc(C2CCN(CC3CCN(c4ccc5c(c4)C(=O)N(C4CCC(=O)NC4=O)C5=O)C3)CC2)nn1 (stereo not shown) [Compound 004, 5-((6-(1-((1-(2-(2,6-dioxopiperidin-3-yl)-1,3-dioxoisoindolin-5-yl)pyrrolidin-3-yl)methyl)piperidin-4-yl)pyridazin-3-yl)amino)-3-(piperidin-1-yl)-1,2,4-triazine-6-carboxamide]	8.94
9.39	< 10				NC(=O)c1nnc(N2CCCCC2)nc1Nc1cnc(C2CCN(CC3CCN(c4ccc5c(c4)C(=O)N(C4CCC(=O)NC4=O)C5=O)C3)CC2)nc1 (stereo not shown) [Compound 005, 5-((2-(1-((1-(2-(2,6-dioxopiperidin-3-yl)-1,3-dioxoisoindolin-5-yl)pyrrolidin-3-yl)methyl)piperidin-4-yl)pyrimidin-5-yl)amino)-3-(piperidin-1-yl)-1,2,4-triazine-6-carboxamide]	8.61
9.17	< 10				NC(=O)c1nnc(N2CCCCC2)nc1Nc1ccc(C2CCN(CC3CCN(c4ccc(NC5CCC(=O)NC5=O)cn4)C3)CC2)cc1 (stereo not shown) [Compound 014, 5-((4-(1-((1-(5-((2,6-dioxopiperidin-3-yl)amino)pyridin-2-yl)pyrrolidin-3-yl)methyl)piperidin-4-yl)phenyl)amino)-3-(piperidin-1-yl)-1,2,4-triazine-6-carboxamide]	8.38
9.49	< 10	37	49		CC(=O)N[C@@H]1CCCN(c2nnc(C(N)=O)c(Nc3ccc(C4CCN(CC5CCN(c6ccc7c(c6)C(=O)N(C6CCC(=O)NC6=O)C7=O)C5)CC4)cc3)n2)C1 (stereo partly drawn) [Compound 016, 3-((R)-3-acetamidopiperidin-1-yl)-5-((4-(1-((1-(2-(2,6-dioxopiperidin-3-yl)-1,3-dioxoisoindolin-5-yl)pyrrolidin-3-yl)methyl)piperidin-4-yl)phenyl)amino)-1,2,4-triazine-6-carboxamide]	8.84
8.96	< 10				NC(=O)c1nnc(N2CCOCC2)nc1Nc1ccc(C2CCN(CC3CCN(c4ccc5c(c4)C(=O)N(C4CCC(=O)NC4=O)C5=O)C3)CC2)cc1 (stereo not shown) [Compound 019, 5-((4-(1-((1-(2-(2,6-dioxopiperidin-3-yl)-1,3-dioxoisoindolin-5-yl)pyrrolidin-3-yl)methyl)piperidin-4-yl)phenyl)amino)-3-morpholino-1,2,4-triazine-6-carboxamide]	8.67
9.16	< 10	20	59		CC(=O)N[C@@H]1CCCN(c2nnc(C(N)=O)c(Nc3ccc(C4CCN(CC5CCN(c6ccc7c(c6)C(=O)N(C6CCC(=O)NC6=O)C7=O)CC5)CC4)cc3)n2)C1 (stereo partly drawn) [Compound 023, 3-((R)-3-acetamidopiperidin-1-yl)-5-((4-(1-((1-(2-(2,6-dioxopiperidin-3-yl)-1,3-dioxoisoindolin-5-yl)piperidin-4-yl)methyl)piperidin-4-yl)phenyl)amino)-1,2,4-triazine-6-carboxamide]	8.17
8.94	< 10			6611 AUC (h*ng/mL)/dose (mg/kg)	NC(=O)c1nnc(N2CCCCC2)nc1Nc1ccc(N2CCN(CC3CCN(c4ccc(C(=O)NC5CCC(=O)NC5=O)nc4)C3)CC2)c(F)c1 (stereo not shown) [Compound 079, 5-((4-(4-((1-(6-((2,6-dioxopiperidin-3-yl)carbamoyl)pyridin-3-yl)pyrrolidin-3-yl)methyl)piperazin-1-yl)-3-fluorophenyl)amino)-3-(piperidin-1-yl)-1,2,4-triazine-6-carboxamide]	
	< 10			372 AUC (h*ng/mL)/dose (mg/kg)	NC(=O)c1nnc(N2CCCCC2)nc1Nc1ccc(N2CCN(CC3CCN(c4ncc(-c5ccc(=O)[nH]n5)cc4C(F)(F)F)CC3)CC2)c(F)c1 [Compound 081, 5-((3-fluoro-4-(4-((1-(5-(6-oxo-1,6-dihydropyridazin-3-yl)-3-(trifluoromethyl)pyridin-2-yl)piperidin-4-yl)methyl)piperazin-1-yl)phenyl)amino)-3-(piperidin-1-yl)-1,2,4-triazine-6-carboxamide]	
9.19	< 10				COc1cc(N2CCC(CN3CCN(c4ccc(Nc5nc(N6CCCCC6)nnc5C(N)=O)cc4F)CC3)CC2)ccc1N1CCC(=O)NC1=O [Compound 082, 5-((4-(4-((1-(4-(2,4-dioxotetrahydropyrimidin-1(2H)-yl)-3-methoxyphenyl)piperidin-4-yl)methyl)piperazin-1-yl)-3-fluorophenyl)amino)-3-(piperidin-1-yl)-1,2,4-triazine-6-carboxamide]	8.64
9.24	< 10			579 AUC (h*ng/mL)/dose (mg/kg)	NC(=O)c1nnc(N2CCCCC2)nc1Nc1ccc(N2CCN(CC3CCN(c4ccc(C(=O)NC5CCC(=O)NC5=O)nc4)CC3)CC2)c(F)c1 (stereo not shown) [Compound 085, 5-((4-(4-((1-(6-((2,6-dioxopiperidin-3-yl)carbamoyl)pyridin-3-yl)piperidin-4-yl)methyl)piperazin-1-yl)-3-fluorophenyl)amino)-3-(piperidin-1-yl)-1,2,4-triazine-6-carboxamide]	
9.05	< 10	78	63		CC(=O)N[C@@H]1CCCN(c2nnc(C(N)=O)c(Nc3ccc(N4CCN(CC5CCN(c6ccc(N7CCC(=O)NC7=O)c(C)c6)CC5)CC4)c(F)c3)n2)C1 [Compound 090, (R)-3-(3-acetamidopiperidin-1-yl)-5-((4-(4-((1-(4-(2,4-dioxotetrahydropyrimidin-1(2H)-yl)-3-methylphenyl)piperidin-4-yl)methyl)piperazin-1-yl)-3-fluorophenyl)amino)-1,2,4-triazine-6-carboxamide]	8.71
9.62	< 10	41	90		CC(=O)N[C@@H]1CCCN(c2nnc(C(N)=O)c(Nc3ccc(N4CCN(CC5CCN(c6ccc(C(=O)NC7CCC(=O)NC7=O)nc6)CC5)CC4)c(F)c3)n2)C1 (stereo partly drawn) [Compound 092, 3-((R)-3-acetamidopiperidin-1-yl)-5-((4-(4-((1-(6-((2,6-dioxopiperidin-3-yl)carbamoyl)pyridin-3-yl)piperidin-4-yl)methyl)piperazin-1-yl)-3-fluorophenyl)amino)-1,2,4-triazine-6-carboxamide]	8.48
9.41	< 10				NC(=O)c1nnc(N2CCOCC2)nc1Nc1ccc(N2CCN(CC3CCN(c4ccc(C(=O)NC5CCC(=O)NC5=O)nc4)CC3)CC2)c(F)c1 (stereo not shown) [Compound 100, 5-((4-(4-((1-(6-((2,6-dioxopiperidin-3-yl)carbamoyl)pyridin-3-yl)piperidin-4-yl)methyl)piperazin-1-yl)-3-fluorophenyl)amino)-3-morpholino-1,2,4-triazine-6-carboxamide]	8.42
